Measured values published in patent US20260048066A1, “TREATMENT OF NEURODEGENERATIVE DISORDERS UTILISING METHYLTHIONINIUM (MT)-CONTAINING COMPOUNDS” (WISTA LABORATORIES LTD, priority 2022, published 2026).
Like-named read-outs stand apart in the source and are kept apart here. Values belong to the molecule of their own block, whether it stands above or below them.

Assays:
[1] = LUCIDITY trial: plasma HMT/MT levels; format: in vivo; settings: human, oral
Experimental: At Visits 2, 3, 7 and 10, timed morning blood samples are collected for determination of plasma level of the drug. Samples are collected prior to dosing and then at 1, 2, and 4 hours post dose. A single blood sample for apolipoprotein E (ApoE) is obtained from participants who provide informed consent at any time after eligibility determination and prior to Visit 7. Blood may also be analyzed for other biomarkers for possible future research related to determination of potential biomarker predictors or surrogates for treatment response, to be described in a separate protocol.
All patients received 16 mg/day (i.e. 8 mg twice daily) from Visit 7 onwards.
The steady-state plasma concentrations (Visit 4. 1 h post-dose) in each dosing arm was investigated further. Patients were grouped based on plasma concentration.

[2] = test system: red cells; settings: in vivo, administered intravenously; cited from earlier work
[3] = test system: participants with severity ranging from mild cognitive impairment (MCI) to moderate AD; assay: LUCIDITY trial: safety and tolerability; format: in vivo, human
Experimental: All safety assessments are performed during Screening to assess subject eligibility, by an independent qualified medical assessor not involved in efficacy assessments. For the enrolled participants, safety assessments are undertaken at Baseline and at each clinic visit after 4, 13, 26, 39, and 52 weeks during the double-blind treatment period, as well as after 56 (telephone assessment, or on-site in UK), 78, and 104 weeks in the open-label, delayed-start phase; when needed to follow up on a treatment-emergent adverse event (AE); and upon early termination (Table 1). Patients are followed as needed for the resolution or stabilization of any AE, consistent with the investigator's medical judgement.

[4] = Completed hydromethylthionine mesylate Phase 3 studies: estimated treatment effect; format: in vivo, human
Experimental: Sample size estimations to achieve 90% power (two-sided alpha=0.05) to detect a difference between hydromethylthionine mesylate 16 mg/day and placebo, the primary treatment group comparison in the double-blind treatment period, have been performed for the two co-primary clinical end points, assuming a withdrawal rate of 20% to 25%. The study sample size of approximately 450 is based on the ADCS-ADL23, which has a larger standard deviation (SD) than ADAS-Cog11. Based on an estimated decline in ADCS-ADL23 over 52 weeks in the control arm of 7.7 units with an estimated SD of 8.5 units, the study will have >90% power to detect a reduction in decline of 3.4 units or more. The 3.4-unit effect size is derived from an estimated treatment effect of 5.0±1.6 (mean±standard error) units in the completed hydromethylthionine mesylate studies. Based on an estimated decline of 6.5 units in ADAS-Cog11 over 52 weeks with an estimated SD of 5.9 units, 200 participants per treatment arm provide >90% power to detect a reduction in decline of 2.6 units or more, provided by a conservative value of the estimated treatment effect based on pooled completed Phase 3 studies of −5.2±1.3 (mean±standard error) units in completed hydromethylthionine mesylate studies.

[5] = test system: participants with severity ranging from mild cognitive impairment (MCI) to moderate AD; assay: LUCIDITY Phase 3 trial: cognitive (ADAS-cog), functional (ADCS-ADL) and brain atrophy outcomes; format: in vivo, human
Excerpt: The LUCIDITY trial (NCT03446001; EudraCT: 2017-003558-17) is a Phase 3, randomized, double-blind, placebo-controlled, outpatient trial to evaluate the safety, efficacy, and tolerability of hydromethylthionine mesylate monotherapy in participants with severity ranging from mild cognitive impairment (MCI) to moderate AD. The initial 12-month blinded period is followed by a 12-month, open-label extension period to provide comparative, delayed-start data. There are 76 study sites located in Canada, France, Italy, Poland, Spain, United Kingdom and United States. The protocol was approved by an institutional review board or independent ethics committee at each site.
Following screening, eligible participants are randomized at baseline in a 4:1:4 ratio to receive hydromethylthionine mesylate 16 mg/day, hydromethylthionine mesylate 8 mg/day, or placebo. Following completion of the 52-week double-blind treatment period, all participants continue open-label treatment with hydromethylthionine mesylate 16 mg/day for a further 52 weeks. Participants who were randomized to start on HMTM are considered early-starters; patients who begin on placebo and switch to HMTM at week 52 are considered delayed starters. Unlike a traditional delayed start design, in which participants remain blinded to treatment throughout the trial, treatment during weeks 52 to 104 is open-label, although participants and the site study staff remain blinded to prior treatment assignment. Randomization was stratified by severity (three levels: MMSE 16-19, 20-25, or 26-27, with a target ratio of approximately 2:3:1), prior use of symptomatic treatments (AChEls and/or memantine-two levels: prior use or none), and region (two levels: Canada/USA or UK/Europe). To achieve this target, enrolment was monitored and controlled at the site level for high recruiting sites and capped as needed at the study level. Patients who dropped out after randomization were not replaced, but participants were encouraged to continue with study visits off treatment until the scheduled completion of the double-blind treatment period (Visit 7). Only participants who continued in the study and receive hydromethylthionine mesylate treatment up to and including the last visit (Visit 10) without the addition of concomitant AChEls and/or memantine were eligible for continued treatment in a subsequent expanded access program.
The active and placebo treatment formulations are tablets that look visually the same. Hydromethylthionine mesylate can cause variable urinary discoloration. Therefore, to maintain blinding, the placebo group receives tablets containing a urinary discolourant (MTC, 4 mg) included among blank tablets containing only excipients on a varying schedule with an average frequency of 2/week.
Dosing frequency of 4 mg MTC tablets was on a varying schedule, such that each patient received a 4 mg tablet among the blanks on average twice per week. All subjects (on all arms) received 4 tablets at two times of day. This allowed for 2×4 mg followed by 2×4 mg to give 16 mg/day dose. 4 tablets were also given daily for placebo (2×placebo then 2×placebo) with 4 mg MTC tablets inserted at a rate of 2 per week i.e. 2 MTC tablets out of 28 per week, with remainder being true placebo.
Participants had to be aged less than 90 years and meet the diagnostic criteria for probable AD or MCI-AD and must not have been taking an AChEl or memantine, for at least 60 days at Baseline. They must have been community-dwelling, have a mini mental state exam (MMSE) score of 16-27, and with functional impairment as evidenced by a Clinical Dementia Dating (CDR) stage of 0.5 to 2 at screening. […] All patients must also have at least one study partner, consenting to their own participation; study partners can be changed so long as they have sufficient contact to complete outcome and safety assessments meaningfully and verify compliance with trial treatment. […]

[6] = LUCIDITY trial: plasma HMT/MT levels; format: in vivo, human; settings: MTC 4 mg twice weekly; after 12 months of treatment
[7] = 16 mg/day, whole study population, MCI to moderate disease

concentration at 1 h ([1]; all dosing arms pooled, steady-state plasma, 1 h post-dose, read-out: Mean value HMT conc): 0.2 ng/mL | concentration at 1 h ([1]; all dosing arms pooled, sub-group BLLOQ (values set to zero), 1 h post-dose, read-out: Mean value HMT conc): 0 ng/mL | concentration at 1 h ([1]; all dosing arms pooled, sub-group high, 1 h post-dose, read-out: Mean value HMT conc): 0.41 ng/mL | concentration at 1 h ([1]; all dosing arms pooled, sub-group mid, 1 h post-dose, read-out: Mean value HMT conc): 0.04 ng/mL | concentration at 1 h ([1]; all dosing arms pooled, sub-group ultralow, 1 h post-dose, read-out: Mean value HMT conc): 0.01 ng/mL
SMILES: CN(C)c1ccc2c(c1)Sc1cc(N(C)C)ccc1N2 [HMT, N3,N3,N7,N7-tetramethyl-10H-phenothiazine-3,7-diamine]

concentration at 1 h ([1]; 8 mg/day, 8 mg/day LMTM arm, sub-group BLLOQ (set to zero), steady state 1 h post-dose, read-out: Mean HMT conc): 0 ng/mL | concentration at 1 h ([1]; 8 mg/day, 8 mg/day LMTM arm, sub-group high, steady state 1 h post-dose, read-out: Mean HMT conc): 0.26 ng/mL | concentration at 1 h ([1]; 8 mg/day, 8 mg/day LMTM arm, sub-group mid, steady state 1 h post-dose, read-out: Mean HMT conc): 0.05 ng/mL | concentration at 1 h ([1]; 16 mg/day, 16 mg LMTM/day group, week 4, 1h post dose, read-out: overall mean plasma concentration): 0.5 ng/mL | concentration at 1 h ([1]; 16 mg/day, 16 mg/day LMTM arm, sub-group BLLOQ (set to zero), steady state 1 h post-dose, read-out: Mean HMT conc): 0 ng/mL | concentration at 1 h ([1]; 16 mg/day, 16 mg/day LMTM arm, sub-group high, steady state 1 h post-dose, read-out: Mean HMT conc): 0.5 ng/mL | concentration at 1 h ([1]; 16 mg/day, 16 mg/day LMTM arm, sub-group mid, steady state 1 h post-dose, read-out: Mean HMT conc): 0.04 ng/mL | concentration at 1 h ([1]; 16 mg/day, 16 mg/day LMTM arm, sub-group ultralow, steady state 1 h post-dose, read-out: Mean HMT conc): 0.02 ng/mL
SMILES: CN(C)c1ccc2c(c1)Sc1cc(N(C)C)ccc1N2.CS(=O)(=O)O.CS(=O)(=O)O [LMTM, N,N,N′,N′-tetramethyl-10H-phenothiazine-3,7-diaminium bis(hydromethanesulfonate)]
MT uptake into red cells, fold higher compared with MTC [2]: approximately 20 fold | treatment-related serious adverse events and amyloid related imaging abnormalities (ARIA) [3]: no treatment-related serious adverse events or evidence of amyloid related imaging abnormalities (ARIA) | estimated treatment effect on ADCS-ADL23 (mean±standard error) ([4]; completed hydromethylthionine mesylate studies): 5.0±1.6 units | estimated treatment effect on ADAS-Cog11 (mean±standard error) ([4]; pooled completed Phase 3 studies): −5.2±1.3 units | disease progression by change in cognitive function (p=0.0008) and brain atrophy (p<0.0001) against matched ADNI subjects ([5]; 16 mg/day): Statistically significant reductions in disease progression | decline in cognitive and functional measures ([5]; 16 mg/day LMTM as monotherapy): zero or minimal decline | decline on ADAS-cog11 over the first 12 months [5, 7]: 1.3 ADAS-cog11 units | decline on ADCS-ADL23 over the first 12 months [5, 7]: −1.0 ADCS-ADL23 units | cognitive improvement over baseline on the ADAS-cog13 scale ([5]; 105 patients with MCI, 16 mg/day, at 6 months (p=0.0002), 12 months (p=0.0391) and 18 months (p=0.0473)): 2 units | cognitive decline in the first 9 months ([5]; 147 patients with mild/moderate AD, 16 mg/day): 2.5 unit | cognitive decline over the following 9 months ([5]; 147 patients with mild/moderate AD, 16 mg/day, months 9 to 18): no further decline | rate of progression of brain atrophy ([5]; MCI participants, HMTM 16 mg/day, versus ADNI MCI subjects (p<0.0001)): significantly less than in ADNI MCI subjects | mean change on the instrumental activities of daily living subscale of ADCS-ADL ([5]; MCI patients, 16 mg/day, at 6, 12 and 18 months): remained above the pre-treatment baseline | reduction in functional decline relative to published meta-analysis of placebo decline data ([5]; mild/moderate AD, 16 mg/day, ADCS-ADL): about 75% | functional decline on the ADCS-ADL scale ([5]; mild/moderate AD, 16 mg/day, at 12 months): −2 units | functional decline on the ADCS-ADL scale ([5]; mild/moderate AD, 16 mg/day, at 18 months): −3 units | treatment effects on cognitive and functional decline versus placebo decline data of anti-amyloid trials ([5]; over 18 months): about three-fold larger

AD patients with plasma levels above 0.10 ng/ml (Cmax) [6]: 89%
SMILES: CN(C)c1ccc2nc3ccc(N(C)C)cc3[s+]c2c1 [MTC, methylthioninium chloride]
treatment effect on ADAS-cog compared to expected decline ([5]; control group (4 mg MTC twice weekly), high plasma HMT group, 12 months): -4.73±2.01 | ADAS-cog decline ([5]; control group (4 mg MTC twice weekly), ultra-low plasma HMT cases, 12 months): 3.75±0.79
